Data as given in PMC3070406 (The Pediatric infectious disease journal, 2011).
“And” between values parts separate entries of the source, which are not always exact repeats. Equal entries are not always repeated.

Key:
[1] = system: NA of influenza A and B virus isolates; type: biochemical, influenza A and B viruses
[2] = system: influenza infection; design: species or system human; conditions: in vivo, po

| Structure (SMILES) | Susceptibility to zanamivir [1] | duration of symptoms after commencing antiviral treatment (mean) [2] |
| --- | --- | --- |
| CC(=O)N[C@H]1[C@H]([C@H](O)[C@H](O)CO)OC(C(=O)O)=C[C@@H]1N=C(N)N [zanamivir] | susceptible | – |
| CCOC(=O)C1=C[C@@H](OC(CC)CC)[C@H](NC(C)=O)[C@@H](N)C1 [oseltamivir] | – | 33.0 ± 8.3 days and 26 ± 17.9 days |
